Results: patent US20250388605A1, “HETEROBIFUNCTIONAL COMPOUNDS AND METHODS OF TREATING DISEASE” (Halda Therapeutics OpCo, Inc., priority 2022, published 2025)

Tests used:
[1] = test system: T-Rex 293 cell line SC3 cells having increased expression of androgen receptor protein due to exposure to doxycycline; assay: Cellular growth inhibition, T-Rex 293 SC3 cells with doxycycline (increased androgen receptor expression), CellTiter-Glo; assay type: cell-based; conditions: T-Rex 293 SC3 cells with 10 ng/mL doxycycline (increased androgen receptor expression), 72 hours, CellTiter-Glo 2.0
Method in brief: (§1)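 Growth inhibition is measured in an inducible AR-expressing T-Rex 293 clone, SC3, cultured with or without 10 ng/mL doxycycline in hormone-depleted medium. Test compounds are applied for 72 hours. GI50 values derive from CellTiter-Glo 2.0 signal fitted by four-parameter regression.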

[2] = test system: T-Rex 293 cell line SC3 cells lacking increased expression of androgen receptor protein; assay: Cellular growth inhibition, T-Rex 293 SC3 cells without doxycycline (no increased androgen receptor expression), CellTiter-Glo; assay type: cell-based; conditions: T-Rex 293 SC3 cells not exposed to doxycycline (no increased androgen receptor expression), 72 hours
Method in brief: as §1

[3] = test system: VCaP cells; assay: Cellular growth inhibition assay for VCaP cells, CellTiter-Glo; assay type: cell-based, human; conditions: 72 hours
Method in brief: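 GI50 values come from four-parameter curve fits of luminescence data normalized to a zero baseline. Compound, in medium with 0.5% DMSO, was added one day after plating and left for 72 h before CellTiter-Glo 2.0 addition.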

[4] = test system: T47D cells; assay: Cellular Growth Inhibition Assay for T47D Cells (CellTiter-Glo); assay type: cell-based, human; conditions: 72 hours
Method in brief: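 GI50 values derive from four-parameter regression of CellTiter-Glo 2.0 luminescence, using zero luminescence as baseline. Human breast cancer T47D cells (3000/well; DMEM, 10% FBS, 0.2 units/mL insulin) were exposed for 72 h to compound dilutions at 0.5% DMSO, with dosing starting 24 h after seeding.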

| GI50 [3] | GI50 [4] | GI50 ([3]; Homo sapiens) | GI50 ([4]; Homo sapiens) | Compound | GI50 [1] | GI50 [2] |
| --- | --- | --- | --- | --- | --- | --- |
| < 500 nM | < 500 nM |  |  | Cn1cc(-c2cc(C(C)(C)O)ccc2Oc2cccc(N3CC(CN4CCN(c5ncc(C(=O)N[C@H]6C(C)(C)[C@H](Oc7ccc(C#N)c(Cl)c7)C6(C)C)cn5)C5(CC5)C4)C3)c2F)c2cc[nH]c2c1=O [Compound I-273] | < 500 nM | 500 to 1500 nM |
|  |  | < 500 nM | < 500 nM | CCS(=O)(=O)Cc1ccc(Oc2cccc(CCCCC3CCN(c4ncc(C(=O)N[C@H]5C(C)(C)[C@H](Oc6ccc(C#N)c(Cl)c6)C5(C)C)cn4)CC3)c2)c(-c2cn(C)c(=O)c3[nH]ccc23)c1 [Compound I-263] | < 500 nM | > 3000 nM |
| < 500 nM | 500 to 1500 nM |  |  | Cn1cc(-c2cc(C(C)(C)O)ccc2O[C@H]2C[C@H](OCC3CCN(c4ncc(C(=O)N[C@H]5C(C)(C)[C@H](Oc6ccc(C#N)c(Cl)c6)C5(C)C)cn4)CC3)C2)c2cc[nH]c2c1=O [Compound I-290] | < 500 nM | < 500 nM |
| 500 to 1500 nM | < 500 nM |  |  | Cn1cc(-c2cc(C(C)(C)O)ccc2Oc2ccc(CCC3CCCN(c4ncc(C(=O)N[C@H]5C(C)(C)[C@H](Oc6ccc(C#N)c(Cl)c6)C5(C)C)cn4)C3)cc2)c2cc[nH]c2c1=O (stereo partly shown) [Compound I-301] | < 500 nM | > 3000 nM |
| < 500 nM | 500 to 1500 nM |  |  | Cn1cc(-c2cc(C(C)(C)O)ccc2Oc2ccc(C(C)(C)N3CC4(CN(c5ncc(C(=O)N[C@H]6C(C)(C)[C@H](Oc7ccc(C#N)c(Cl)c7)C6(C)C)cn5)CCO4)C3)cc2)c2cc[nH]c2c1=O [Compound I-312] | < 500 nM | 500 to 1500 nM |
| < 500 nM | < 500 nM |  |  | Cn1cc(-c2cc(C(C)(C)O)ccc2Oc2cccc(OC3CC4(C3)CN(c3ncc(C(=O)N[C@H]5C(C)(C)[C@H](Oc6ccc(C#N)c(Cl)c6)C5(C)C)cn3)C4)c2)c2cc[nH]c2c1=O [Compound I-320] | < 500 nM | < 500 nM |
| < 500 nM | 500 to 1500 nM |  |  | Cn1cc(-c2ccccc2Oc2cccc(CCOC3CCN(c4ncc(C(=O)N[C@H]5C(C)(C)[C@H](Oc6ccc(C#N)c(Cl)c6)C5(C)C)cn4)CC3)c2F)c2cc[nH]c2c1=O [Compound I-149] | < 500 nM | < 500 nM |
| < 500 nM | 500 to 1500 nM |  |  | Cn1cc(-c2cc(C(C)(C)O)ccc2Oc2cccc(OCCC3CC4(C3)CN(c3ncc(C(=O)N[C@H]5C(C)(C)[C@H](Oc6ccc(C#N)c(Cl)c6)C5(C)C)cn3)C4)c2F)c2cc[nH]c2c1=O [Compound I-210] | < 500 nM | < 500 nM |
|  |  | < 500 nM | 1500 to 3000 nM | CC(C)c1ccc(Oc2cccc(CCCN3CCN(c4ncc(C(=O)NC5C(C)(C)C(Oc6ccc(C#N)c(Cl)c6)C5(C)C)cn4)CC3)c2)c(-c2cn(C)c(=O)c3[nH]ccc23)c1 (stereo not shown) [Compound I-125, N-[3-(3-chloro-4-cyano-phenoxy)-2,2,4,4-tetramethyl-cyclobutyl]-2-[4-[3-[3-[4-isopropyl-2-(6-methyl-7-oxo-1H-pyrrolo[2,3-c]pyridin-4-yl)phenoxy]phenyl]propyl]piperazin-1-yl]pyrimidine-5-carboxamide] | < 500 nM | > 3000 nM |
|  |  | < 500 nM | 500 to 1500 nM | Cn1cc(-c2cc(C(C)(C)O)ccc2OC2CCC(N3CC(OC4CCN(c5ncc(C(=O)NC6C(C)(C)C(Oc7ccc(C#N)c(Cl)c7)C6(C)C)cn5)CC4)C3)C2)c2cc[nH]c2c1=O (stereo not shown) [Compound I-266, N-[3-(3-chloro-4-cyano-phenoxy)-2,2,4,4-tetramethyl-cyclobutyl]-2-[4-[1-[3-[4-(1-hydroxy-1-methyl-ethyl)-2-(6-methyl-7-oxo-1H-pyrrolo[2,3-c]pyridin-4-yl)phenoxy]cyclopentyl]azetidin-3-yl]oxy-1-piperidyl]pyrimidine-5-carboxamide] | < 500 nM | 1500 to 3000 nM |
|  |  | < 500 nM | 1500 to 3000 nM | Cn1cc(-c2ccccc2Oc2cccc(OCCC3CCN(c4ncc(C(=O)N[C@H]5C(C)(C)[C@H](Oc6ccc(C#N)c(Cl)c6)C5(C)C)cn4)CC3)c2)c2cc[nH]c2c1=O [Compound I-102] | < 500 nM | 500 to 1500 nM |
|  |  | < 500 nM | > 3000 nM | Cn1cc(-c2cc(C(C)(C)O)ccc2Oc2ccc(C(C)(C)N3CC4(CCN(c5ncc(C(=O)N[C@H]6C(C)(C)[C@H](Oc7ccc(C#N)c(Cl)c7)C6(C)C)cn5)CC4)C3)cc2)c2cc[nH]c2c1=O [Compound I-308] | < 500 nM | 500 to 1500 nM |
| 500 to 1500 nM | < 500 nM |  |  | Cn1cc(-c2cc(C(C)(C)O)ccc2Oc2cccc(N3CC(N(C4CC4)C4CCN(c5ncc(C(=O)N[C@H]6C(C)(C)[C@H](Oc7ccc(C#N)c(Cl)c7)C6(C)C)cn5)CC4)C3)c2F)c2cc[nH]c2c1=O [Compound I-240] | < 500 nM | > 3000 nM |
| < 500 nM | 500 to 1500 nM |  |  | Cn1cc(-c2ccccc2Oc2cccc(OCCN3CCN(c4ncc(C(=O)N[C@H]5C(C)(C)[C@H](Oc6ccc(C#N)c(Cl)c6)C5(C)C)cn4)CC3)c2F)c2cc[nH]c2c1=O [Compound I-115] | < 500 nM | < 500 nM |
| < 500 nM | < 500 nM |  |  | Cn1cc(-c2cc(C(C)(C)O)ccc2Oc2ccc(CC3CC(C4CCCN(c5ncc(C(=O)N[C@H]6C(C)(C)[C@H](Oc7ccc(C#N)c(Cl)c7)C6(C)C)cn5)C4)C3)cc2)c2cc[nH]c2c1=O (single isomer, unassigned) [Compound I-349] | > 3000 nM | > 3000 nM |
|  |  | < 500 nM | < 500 nM | CCS(=O)(=O)Nc1ccc(Oc2cccc(OCC3CCN(c4ncc(C(=O)N[C@H]5C(C)(C)[C@H](Oc6ccc(C#N)c(Cl)c6)C5(C)C)cn4)CC3)c2)c(-c2cn(C)c(=O)c3[nH]ccc23)c1 [Compound I-25] | < 500 nM | < 500 nM |
|  |  | > 3000 nM | < 500 nM | Cn1cc(-c2cc(C(C)(C)O)ccc2Oc2ccc(OC[C@@H]3CCCN(c4ncc(C(=O)N[C@H]5C(C)(C)[C@H](Oc6ccc(C#N)c(Cl)c6)C5(C)C)cn4)C3)cc2)c2cc[nH]c2c1=O [Compound I-339] | < 500 nM | > 3000 nM |
|  |  | 500 to 1500 nM | 500 to 1500 nM | Cn1cc(-c2cc(S(C)(=O)=O)ccc2Oc2cccc(CCCC3CCN(c4ncc(C(=O)NC5C(C)(C)C(Oc6ccc(C#N)c(Cl)c6)C5(C)C)cn4)CC3)c2)c2cc[nH]c2c1=O (stereo not shown) [Compound I-249, N-[3-(3-chloro-4-cyano-phenoxy)-2,2,4,4-tetramethyl-cyclobutyl]-2-[4-[3-[3-[2-(6-methyl-7-oxo-1H-pyrrolo[2,3-c]pyridin-4-yl)-4-methyl-sulfonyl-phenoxy]phenyl]propyl]-1-piperidyl]pyrimidine-5-carboxamide] | < 500 nM | > 3000 nM |
| < 500 nM | < 500 nM |  |  | CCS(=O)(=O)c1ccc(Oc2ccc(CCC3CCN(c4ncc(C(=O)N[C@H]5C(C)(C)[C@H](Oc6ccc(C#N)c(Cl)c6)C5(C)C)cn4)CC3)c(F)c2)c(-c2cn(C)c(=O)c3[nH]ccc23)c1 [Compound I-284] | < 500 nM | > 3000 nM |
|  |  | < 500 nM | < 500 nM | CCS(=O)(=O)Nc1ccc(Oc2cccc(OC3CCN(c4ncc(C(=O)N[C@H]5C(C)(C)[C@H](Oc6ccc(C#N)c(Cl)c6)C5(C)C)cn4)CC3)c2)c(-c2cn(C)c(=O)c3[nH]ccc23)c1 [Compound I-24] | < 500 nM | < 500 nM |
| < 500 nM | < 500 nM |  |  | Cn1cc(-c2cc(C(C)(C)O)ccc2Oc2cccc(CC3CC4(C3)CN(c3ncc(C(=O)N[C@H]5C(C)(C)[C@H](Oc6ccc(C#N)c(Cl)c6)C5(C)C)cn3)C4)c2)c2cc[nH]c2c1=O [Compound I-321] | < 500 nM | < 500 nM |
|  |  | < 500 nM | 500 to 1500 nM | CC(=O)N(C)c1ccc(Oc2cccc(OCCOC3CCN(c4ncc(C(=O)N[C@H]5C(C)(C)[C@H](Oc6ccc(C#N)c(Cl)c6)C5(C)C)cn4)CC3)c2)c(-c2cn(C)c(=O)c3[nH]ccc23)c1 [Compound I-58] | < 500 nM | > 3000 nM |
|  |  | < 500 nM | < 500 nM | CCS(=O)(=O)Nc1ccc(Oc2cccc(CC3CCN(c4ncc(C(=O)N[C@H]5C(C)(C)[C@H](Oc6ccc(C#N)c(Cl)c6)C5(C)C)cn4)CC3)c2)c(-c2cn(C)c(=O)c3[nH]ccc23)c1 [Compound I-23] | < 500 nM | < 500 nM |
|  |  | < 500 nM | < 500 nM | Cn1cc(-c2cc(C(C)(C)O)ccc2Oc2ccc(N3CC(CC4CCN(c5ncc(C(=O)N[C@H]6C(C)(C)[C@H](Oc7ccc(C#N)c(Cl)c7)C6(C)C)cn5)CC4)C3)cn2)c2cc[nH]c2c1=O [Compound I-345, N-[3-(3-chloro-4-cyano-phenoxy)-2,2,4,4-tetramethyl-cyclobutyl]-2-[4-[[1-[6-[4-(1-hydroxy-1-methyl-ethyl)-2-(6-methyl-7-oxo-1H-pyrrolo [2,3-c]pyridin-4-yl)phenoxy]-3-pyridyl]azetidin-3-yl]methyl]-1-piperidyl]pyrimidine-5-carboxamide] | < 500 nM | > 3000 nM |
| < 500 nM | < 500 nM |  |  | Cn1cc(-c2cc(C(C)(C)O)ccc2O[C@H]2C[C@H](CCC3CCN(c4ncc(C(=O)N[C@H]5C(C)(C)[C@H](Oc6ccc(C#N)c(Cl)c6)C5(C)C)cn4)CC3)C2)c2cc[nH]c2c1=O [Compound I-310] | < 500 nM | < 500 nM |
